{"source": "patent US8754054B2", "about": "“Antibacterial compounds, methods of making them, and uses thereof” (Albany Molecular Research, Inc., priority 2010, dated 2014)", "experiment_in_all_cases": "Antibacterial activity in vitro, NCCLS dilution method (Table 10)", "assay_type_in_all_cases": "cell-based", "key": {"[1]": {"test_system": "H. parainfluenzae 2319 (ATCC 7901)", "settings": "Gram −", "excerpt": "(§1) NCCLS standards for antimicrobial susceptibility testing using the dilution method were followed. See: Performance Standards for Antimicrobial Susceptibility Testing; Fourteenth Informational Supplement. NCCLS Document M100-S14 (ISBN 1-56238-516-X), 2004. NCCLS, 940 West Valley Road, Suite 1400, Wayne, Pa. 19087-1898 USA, 2004; Methods for Dilution Antimicrobial Susceptibility Tests for Bacteria that Grow Aerobically; Approved Standard—Sixth Edition. NCCLS document M7-A6 (IBSBN 1-56238-486-4), NCCLS, 940 West Valley Road, Suite 1400, Wayne, Pa. 19087-1898 USA, 2003, which are hereby incorporated by reference in their entirety."}, "S. pneumoniae 940": {"test_system": "S. pneumoniae 940", "settings": "S. pneumoniae 940, Gram +, PRSP", "excerpt": "as §1"}, "S. aureus (ATCC 43300)": {"test_system": "S. aureus (ATCC 43300)", "settings": "Gram +, MRSA", "excerpt": "as §1"}, "S. pneumoniae 376": {"test_system": "S. pneumoniae 376", "settings": "S. pneumoniae 376, Gram +, Quin-R", "excerpt": "as §1"}, "S. aureus 2144": {"test_system": "S. aureus 2144", "settings": "S. aureus 2144, Gram +, CA, USA 300 Strain", "excerpt": "as §1"}, "S. agalactiae 2033": {"test_system": "S. agalactiae 2033", "settings": "S. agalactiae 2033, Gram +", "excerpt": "as §1"}, "E. faecium 700221": {"test_system": "E. faecium 700221", "settings": "E. faecium 700221, Gram +, VRE", "excerpt": "as §1"}, "E. coli 102 (ATCC 25922)": {"test_system": "E. coli 102 (ATCC 25922)", "settings": "Gram −, QC strain", "excerpt": "as §1"}, "S. epidermidis 1597": {"test_system": "S. epidermidis 1597", "settings": "S. epidermidis 1597, Gram +, MSSE", "excerpt": "as §1"}, "S. pyogenes 723": {"test_system": "S. pyogenes 723", "settings": "S. pyogenes 723, Gram +", "excerpt": "as §1"}, "S. aureus 1651": {"test_system": "S. aureus 1651", "settings": "S. aureus 1651, Gram +, LRSA", "excerpt": "as §1"}, "S. saprophyticus 495": {"test_system": "S. saprophyticus 495", "settings": "S. saprophyticus 495, Gram +", "excerpt": "as §1"}, "S. aureus 1725": {"test_system": "S. aureus 1725", "settings": "S. aureus 1725, Gram +, LRSA", "excerpt": "as §1"}, "S. epidermidis 1452": {"test_system": "S. epidermidis 1452", "settings": "S. epidermidis 1452, Gram +, MRSE", "excerpt": "as §1"}, "[2]": {"test_system": "P. aeruginosa (ATCC 27853)", "settings": "Gram −", "excerpt": "as §1"}, "K. pneumoniae 2262": {"test_system": "K. pneumoniae 2262", "settings": "K. pneumoniae 2262, Gram −, ampC, MDR", "excerpt": "as §1"}, "S. aureus 2018": {"test_system": "S. aureus 2018", "settings": "S. aureus 2018, Gram +, VISA", "excerpt": "as §1"}, "S. pneumoniae 975": {"test_system": "S. pneumoniae 975", "settings": "S. pneumoniae 975, Gram +, PSSP", "excerpt": "as §1"}, "S. aureus 1137": {"test_system": "S. aureus 1137", "settings": "S. aureus 1137, Gram +, MRSA", "excerpt": "as §1"}, "S. marcescens 1635": {"test_system": "S. marcescens 1635", "settings": "S. marcescens 1635, Gram −", "excerpt": "as §1"}, "S. aureus (ATCC 6538)": {"test_system": "S. aureus (ATCC 6538)", "settings": "Gram +, MSSA", "excerpt": "as §1"}, "M. catarrhalis 557": {"test_system": "M. catarrhalis 557", "settings": "M. catarrhalis 557, Gram −", "excerpt": "as §1"}, "E. coli 2269": {"test_system": "E. coli 2269", "settings": "E. coli 2269, Gram −, ESBL-producer", "excerpt": "as §1"}, "H. influenzae 1742": {"test_system": "H. influenzae 1742", "settings": "H. influenzae 1742, Gram −, ampR", "excerpt": "as §1"}, "K. pneumoniae 2239": {"test_system": "K. pneumoniae 2239", "settings": "K. pneumoniae 2239, Gram −", "excerpt": "as §1"}, "S. pneumoniae 933": {"test_system": "S. pneumoniae 933", "settings": "S. pneumoniae 933, Gram +, MDR", "excerpt": "as §1"}, "E. faecalis 846": {"test_system": "E. faecalis 846", "settings": "E. faecalis 846, Gram +, VRE", "excerpt": "as §1"}, "S. aureus (ATCC 29213)": {"test_system": "S. aureus (ATCC 29213)", "settings": "Gram +, MSSA", "excerpt": "as §1"}, "S. aureus 2012": {"test_system": "S. aureus 2012", "settings": "S. aureus 2012, Gram +, VISA", "excerpt": "as §1"}}, "data": [{"molecule": "CN[C@H](CC(C)C)C(=O)N[C@H]1C(=O)N[C@@H](CC(N)=O)C(=O)N[C@H]2C(=O)N[C@H]3C(=O)N[C@H](C(=O)N[C@H](C(=O)O)c4cc(O)cc(O)c4-c4cc3ccc4O)[C@H](O)c3ccc(c(Cl)c3)Oc3cc2cc(c3O[C@@H]2O[C@H](CO)[C@@H](O)[C@H](O)[C@H]2O[C@H]2C[C@](C)(N)[C@H](O)[C@H](C)O2)Oc2ccc(cc2Cl)[C@H]1O", "note": "[Vancomycin]", "values": [{"measurement": "antibacterial activity (dilution susceptibility test)", "setting": "[1]", "result": 64}, {"measurement": "antibacterial activity (dilution susceptibility test)", "setting": "S. pneumoniae 940", "result": 0.25}, {"measurement": "antibacterial activity (dilution susceptibility test)", "setting": "S. aureus (ATCC 43300)", "result": 2}, {"measurement": "antibacterial activity (dilution susceptibility test)", "setting": "S. pneumoniae 376", "result": 0.5}, {"measurement": "antibacterial activity (dilution susceptibility test)", "setting": "S. aureus 2144", "result": 1}, {"measurement": "antibacterial activity (dilution susceptibility test)", "setting": "S. agalactiae 2033", "result": 0.5}, {"measurement": "antibacterial activity (dilution susceptibility test)", "setting": "E. faecium 700221", "result": ">64"}, {"measurement": "antibacterial activity (dilution susceptibility test)", "setting": "E. coli 102 (ATCC 25922)", "result": ">64"}, {"measurement": "antibacterial activity (dilution susceptibility test)", "setting": "S. epidermidis 1597", "result": 2}, {"measurement": "antibacterial activity (dilution susceptibility test)", "setting": "S. pyogenes 723", "result": 0.5}, {"measurement": "antibacterial activity (dilution susceptibility test)", "setting": "S. aureus 1651", "result": 1}, {"measurement": "antibacterial activity (dilution susceptibility test)", "setting": "S. saprophyticus 495", "result": 1}, {"measurement": "antibacterial activity (dilution susceptibility test)", "setting": "S. aureus 1725", "result": 1}, {"measurement": "antibacterial activity (dilution susceptibility test)", "setting": "S. epidermidis 1452", "result": 2}, {"measurement": "antibacterial activity (dilution susceptibility test)", "setting": "[2]", "result": ">64"}, {"measurement": "antibacterial activity (dilution susceptibility test)", "setting": "K. pneumoniae 2262", "result": ">64"}, {"measurement": "antibacterial activity (dilution susceptibility test)", "setting": "S. aureus 2018", "result": 8}, {"measurement": "antibacterial activity (dilution susceptibility test)", "setting": "S. pneumoniae 975", "result": 0.5}, {"measurement": "antibacterial activity (dilution susceptibility test)", "setting": "S. aureus 1137", "result": 1}, {"measurement": "antibacterial activity (dilution susceptibility test)", "setting": "S. marcescens 1635", "result": ">64"}, {"measurement": "antibacterial activity (dilution susceptibility test)", "setting": "S. aureus (ATCC 6538)", "result": 0.5}, {"measurement": "antibacterial activity (dilution susceptibility test)", "setting": "M. catarrhalis 557", "result": ">64"}, {"measurement": "antibacterial activity (dilution susceptibility test)", "setting": "E. coli 2269", "result": ">64"}, {"measurement": "antibacterial activity (dilution susceptibility test)", "setting": "H. influenzae 1742", "result": ">64"}, {"measurement": "antibacterial activity (dilution susceptibility test)", "setting": "K. pneumoniae 2239", "result": ">64"}, {"measurement": "antibacterial activity (dilution susceptibility test)", "setting": "S. pneumoniae 933", "result": 0.5}, {"measurement": "antibacterial activity (dilution susceptibility test)", "setting": "E. faecalis 846", "result": ">64"}, {"measurement": "antibacterial activity (dilution susceptibility test)", "setting": "S. aureus (ATCC 29213)", "result": 1}, {"measurement": "antibacterial activity (dilution susceptibility test)", "setting": "S. aureus 2012", "result": 8}]}]}
